# Test results as given in ChEMBL document CHEMBL5696442, “Discovery of type II inhibitors of TGFβ-activated kinase 1 (TAK1) and mitogen-activated protein kinase kinase kinase kinase 2 (MAP4K2)” (J Med Chem, 2015).
# The source made the active and inactive calls. The calls are words filed in the database; no cut-off is given here.
# Legend:
# [1] = biological target: Tyrosine-protein kinase Lck (Homo sapiens) (UniProt P06239); experiment: Inhibition of LCK (unknown origin) at 10 uM by Ambit Kinomescan binding assay relative to control
# [2] = biological target: Casein kinase I isoform delta (Homo sapiens) (UniProt P48730); experiment: Inhibition of CSNK1D (unknown origin) at 10 uM by Ambit Kinomescan binding assay
# Chain of Casein kinase I isoform delta (Homo sapiens) (P48730 whole entry, looked up, canonical isoform): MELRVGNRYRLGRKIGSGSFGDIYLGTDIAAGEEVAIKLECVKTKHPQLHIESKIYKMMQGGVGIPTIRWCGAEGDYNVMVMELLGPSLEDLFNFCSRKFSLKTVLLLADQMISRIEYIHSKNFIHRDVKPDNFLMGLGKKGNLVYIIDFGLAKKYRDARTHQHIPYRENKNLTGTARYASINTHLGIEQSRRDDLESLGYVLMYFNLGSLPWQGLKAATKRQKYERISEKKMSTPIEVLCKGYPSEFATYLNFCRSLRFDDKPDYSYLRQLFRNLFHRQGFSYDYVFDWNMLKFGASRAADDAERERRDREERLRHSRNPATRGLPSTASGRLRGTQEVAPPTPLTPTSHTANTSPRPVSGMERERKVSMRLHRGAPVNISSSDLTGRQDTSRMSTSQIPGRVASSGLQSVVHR
# [3] = biological target: Cyclin-dependent kinase 17 (Homo sapiens) (UniProt Q00537); experiment: Inhibition of PCTAIRE2 K2 labeling site in human Huh-7 cells at 1 uM by KiNativ Profiling analysis relative to control; assay type: cell-based
# Chain of Cyclin-dependent kinase 17 (Homo sapiens) (Q00537 whole entry, looked up): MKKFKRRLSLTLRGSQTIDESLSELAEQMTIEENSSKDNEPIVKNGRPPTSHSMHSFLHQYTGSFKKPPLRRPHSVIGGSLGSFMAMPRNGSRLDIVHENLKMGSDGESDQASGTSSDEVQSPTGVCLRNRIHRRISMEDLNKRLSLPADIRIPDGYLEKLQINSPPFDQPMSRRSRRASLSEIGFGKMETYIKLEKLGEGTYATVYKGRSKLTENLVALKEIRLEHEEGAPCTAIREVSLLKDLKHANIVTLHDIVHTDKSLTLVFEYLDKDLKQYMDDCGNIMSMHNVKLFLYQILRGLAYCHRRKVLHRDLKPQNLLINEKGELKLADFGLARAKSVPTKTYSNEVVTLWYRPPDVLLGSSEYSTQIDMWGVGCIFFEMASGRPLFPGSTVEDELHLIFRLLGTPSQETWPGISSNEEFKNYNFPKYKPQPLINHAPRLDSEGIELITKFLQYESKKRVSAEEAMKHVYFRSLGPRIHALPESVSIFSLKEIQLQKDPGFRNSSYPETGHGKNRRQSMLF
# [4] = biological target: T1, Aurora kinase A (Homo sapiens) (UniProt O14965); experiment: Inhibition of AURKA (unknown origin) at 10 uM by Ambit Kinomescan binding assay
# T1 sequence (whole entry): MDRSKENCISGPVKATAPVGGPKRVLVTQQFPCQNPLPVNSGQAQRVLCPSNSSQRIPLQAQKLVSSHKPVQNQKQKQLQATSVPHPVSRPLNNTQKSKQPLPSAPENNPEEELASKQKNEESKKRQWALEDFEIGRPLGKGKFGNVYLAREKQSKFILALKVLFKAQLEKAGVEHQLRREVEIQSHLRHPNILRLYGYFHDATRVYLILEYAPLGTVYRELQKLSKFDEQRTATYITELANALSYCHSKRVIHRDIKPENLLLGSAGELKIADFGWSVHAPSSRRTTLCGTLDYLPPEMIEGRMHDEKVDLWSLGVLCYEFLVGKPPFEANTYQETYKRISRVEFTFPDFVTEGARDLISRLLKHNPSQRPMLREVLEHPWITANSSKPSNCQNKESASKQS
# [5] = biological target: T2, Dual specificity mitogen-activated protein kinase kinase 4 (Homo sapiens) (UniProt P45985); experiment: Inhibition of MAP2K4 K2 labeling site harbouring DIKPSNILLDR in human Huh-7 cells at 1 uM by KiNativ Profiling analysis relative to control; assay type: cell-based
# T2 sequence (whole entry): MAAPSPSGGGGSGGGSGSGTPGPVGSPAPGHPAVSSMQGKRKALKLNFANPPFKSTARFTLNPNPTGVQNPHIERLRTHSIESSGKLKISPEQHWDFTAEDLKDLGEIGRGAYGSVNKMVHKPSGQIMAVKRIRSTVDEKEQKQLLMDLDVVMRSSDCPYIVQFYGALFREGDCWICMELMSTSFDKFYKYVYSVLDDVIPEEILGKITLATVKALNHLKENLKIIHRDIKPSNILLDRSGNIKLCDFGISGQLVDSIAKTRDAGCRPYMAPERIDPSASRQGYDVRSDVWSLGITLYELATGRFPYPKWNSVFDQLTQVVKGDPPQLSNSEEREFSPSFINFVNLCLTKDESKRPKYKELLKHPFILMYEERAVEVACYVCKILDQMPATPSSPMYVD
# [6] = biological target: Mitogen-activated protein kinase 7 (Homo sapiens) (UniProt Q13164); experiment: Inhibition of Erk5 Lys2 labeling site in human A-375 cells at 0.05 uM by KiNativ Profiling analysis relative to control; assay type: cell-based
# Chain of Mitogen-activated protein kinase 7 (Homo sapiens) (Q13164 2-816 limits assumed): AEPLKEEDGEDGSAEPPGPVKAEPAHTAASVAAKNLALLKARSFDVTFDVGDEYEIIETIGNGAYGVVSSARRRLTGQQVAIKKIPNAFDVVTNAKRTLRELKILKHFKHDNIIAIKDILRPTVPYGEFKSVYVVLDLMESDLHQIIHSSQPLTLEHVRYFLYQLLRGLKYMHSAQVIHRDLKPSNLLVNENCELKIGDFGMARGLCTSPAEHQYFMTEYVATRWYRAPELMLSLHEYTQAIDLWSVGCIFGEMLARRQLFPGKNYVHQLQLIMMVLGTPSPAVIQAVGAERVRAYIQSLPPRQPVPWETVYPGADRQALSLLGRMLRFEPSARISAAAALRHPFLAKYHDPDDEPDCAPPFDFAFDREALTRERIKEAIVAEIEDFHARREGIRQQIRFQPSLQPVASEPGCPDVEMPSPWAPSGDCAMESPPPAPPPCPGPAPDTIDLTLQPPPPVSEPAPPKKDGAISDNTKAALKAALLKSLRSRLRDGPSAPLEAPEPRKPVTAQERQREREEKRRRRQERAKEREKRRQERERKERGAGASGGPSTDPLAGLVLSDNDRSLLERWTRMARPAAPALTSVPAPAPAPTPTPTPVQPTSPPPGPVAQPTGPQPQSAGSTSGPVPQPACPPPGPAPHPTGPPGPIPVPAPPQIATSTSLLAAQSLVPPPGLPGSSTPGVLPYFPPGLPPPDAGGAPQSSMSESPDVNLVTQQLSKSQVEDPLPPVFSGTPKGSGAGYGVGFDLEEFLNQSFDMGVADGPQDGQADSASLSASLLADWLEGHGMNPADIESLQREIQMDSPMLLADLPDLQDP
# [7] = biological target: Tyrosine-protein kinase Fyn (Homo sapiens) (UniProt P06241); experiment: Inhibition of FYN ACT labeling site in human Huh-7 cells at 1 uM by KiNativ Profiling analysis relative to control; assay type: cell-based
# Chain of Tyrosine-protein kinase Fyn (Homo sapiens) (P06241 2-537 limits assumed): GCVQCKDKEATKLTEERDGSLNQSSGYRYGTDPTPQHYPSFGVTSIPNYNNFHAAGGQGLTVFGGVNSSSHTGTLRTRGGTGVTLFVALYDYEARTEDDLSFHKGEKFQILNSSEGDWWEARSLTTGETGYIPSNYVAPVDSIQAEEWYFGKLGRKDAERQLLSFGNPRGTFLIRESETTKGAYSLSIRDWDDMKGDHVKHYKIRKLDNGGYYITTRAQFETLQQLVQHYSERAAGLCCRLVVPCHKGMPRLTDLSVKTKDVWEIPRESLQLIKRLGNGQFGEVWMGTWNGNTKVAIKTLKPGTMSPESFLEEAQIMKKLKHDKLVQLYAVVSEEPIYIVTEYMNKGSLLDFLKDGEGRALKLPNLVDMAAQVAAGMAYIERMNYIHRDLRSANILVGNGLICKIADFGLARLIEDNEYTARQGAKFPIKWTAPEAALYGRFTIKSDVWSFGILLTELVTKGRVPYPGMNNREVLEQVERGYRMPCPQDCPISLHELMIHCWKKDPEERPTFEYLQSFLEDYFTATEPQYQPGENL
# [8] = biological target: Rho-associated protein kinase 2 (Homo sapiens) (UniProt O75116); experiment: Inhibition of ROCK2 Lys2 labeling site in human A-375 cells at 0.05 uM by KiNativ Profiling analysis relative to control; assay type: cell-based
# [9] = biological target: Serine/threonine-protein kinase 38 (Homo sapiens) (UniProt Q15208); experiment: Inhibition of NDR1 ACT labeling site in human A-375 cells at 0.5 uM by KiNativ Profiling analysis relative to control; assay type: cell-based
# Chain of Serine/threonine-protein kinase 38 (Homo sapiens) (Q15208 2-465 limits assumed): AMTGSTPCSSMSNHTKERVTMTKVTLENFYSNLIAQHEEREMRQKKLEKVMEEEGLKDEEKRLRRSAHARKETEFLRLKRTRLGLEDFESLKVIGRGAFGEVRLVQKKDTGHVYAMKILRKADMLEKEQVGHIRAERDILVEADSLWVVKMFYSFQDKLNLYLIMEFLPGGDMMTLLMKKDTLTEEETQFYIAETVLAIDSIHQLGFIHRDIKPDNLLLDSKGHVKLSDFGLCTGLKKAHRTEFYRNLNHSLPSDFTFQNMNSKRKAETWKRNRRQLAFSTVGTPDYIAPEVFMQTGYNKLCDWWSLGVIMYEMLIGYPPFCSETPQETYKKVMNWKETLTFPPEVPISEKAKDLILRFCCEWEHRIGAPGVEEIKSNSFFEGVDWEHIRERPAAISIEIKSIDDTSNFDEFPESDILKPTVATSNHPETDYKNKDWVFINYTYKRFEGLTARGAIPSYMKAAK
# [10] = biological target: Non-receptor tyrosine-protein kinase TYK2 (Homo sapiens) (UniProt P29597); experiment: Inhibition of TYK2 domain2 ACT labeling site in human A-375 cells at 0.05 uM by KiNativ Profiling analysis relative to control; assay type: cell-based
# [11] = biological target: Serine/threonine-protein kinase 26 (Homo sapiens) (UniProt Q9P289); experiment: Inhibition of MST4 (unknown origin) at 10 uM by Ambit Kinomescan binding assay
# Chain of Serine/threonine-protein kinase 26 (Homo sapiens) (Q9P289 2-416 limits assumed): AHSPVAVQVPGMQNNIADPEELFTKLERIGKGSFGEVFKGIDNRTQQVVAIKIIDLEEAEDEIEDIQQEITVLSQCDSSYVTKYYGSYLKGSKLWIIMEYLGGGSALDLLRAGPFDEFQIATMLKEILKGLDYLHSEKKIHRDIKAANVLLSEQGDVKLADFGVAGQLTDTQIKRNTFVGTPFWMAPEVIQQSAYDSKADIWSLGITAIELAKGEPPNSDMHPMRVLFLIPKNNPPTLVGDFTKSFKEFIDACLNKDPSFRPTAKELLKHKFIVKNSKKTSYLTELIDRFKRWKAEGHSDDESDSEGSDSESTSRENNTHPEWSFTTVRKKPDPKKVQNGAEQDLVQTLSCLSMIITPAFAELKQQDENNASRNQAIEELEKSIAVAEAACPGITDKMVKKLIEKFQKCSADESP
# [12] = tested on: Epidermal growth factor receptor (Homo sapiens), P00533 [L858R]; experiment: Inhibition of EGFR L858R mutant (unknown origin) at 1 uM by Ambit Kinomescan binding assay relative to control
# [13] = biological target: Ribosomal protein S6 kinase alpha-3 (Homo sapiens) (UniProt P51812); experiment: Inhibition of RSK2 domain2 Lys2 labeling site DLKPSNILYVDESGNPESIR in human Huh-7 cell lysate at 1 uM by KiNativ Profiling analysis relative to control; assay type: subcellular
# Chain of Ribosomal protein S6 kinase alpha-3 (Homo sapiens) (P51812 whole entry, the tested form may be a part): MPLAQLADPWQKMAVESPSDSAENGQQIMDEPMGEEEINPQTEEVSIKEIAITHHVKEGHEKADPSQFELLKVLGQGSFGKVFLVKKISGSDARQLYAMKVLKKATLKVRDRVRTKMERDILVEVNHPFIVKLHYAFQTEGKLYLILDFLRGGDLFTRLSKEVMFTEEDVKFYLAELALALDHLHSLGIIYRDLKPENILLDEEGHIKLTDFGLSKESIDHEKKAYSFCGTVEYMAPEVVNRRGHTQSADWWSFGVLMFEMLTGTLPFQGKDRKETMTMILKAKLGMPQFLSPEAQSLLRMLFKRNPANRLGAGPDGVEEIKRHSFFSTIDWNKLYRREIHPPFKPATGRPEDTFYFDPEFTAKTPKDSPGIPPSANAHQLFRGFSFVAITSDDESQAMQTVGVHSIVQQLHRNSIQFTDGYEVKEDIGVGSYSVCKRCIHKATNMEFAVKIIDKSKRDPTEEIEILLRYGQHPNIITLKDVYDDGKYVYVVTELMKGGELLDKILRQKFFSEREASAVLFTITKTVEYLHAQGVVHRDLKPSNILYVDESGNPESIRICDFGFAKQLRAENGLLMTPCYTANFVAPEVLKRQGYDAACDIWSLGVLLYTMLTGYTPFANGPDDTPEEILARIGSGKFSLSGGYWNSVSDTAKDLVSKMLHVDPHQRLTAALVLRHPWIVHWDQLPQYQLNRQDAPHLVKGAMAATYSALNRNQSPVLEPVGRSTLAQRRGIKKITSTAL
# [14] = biological target: Serine/threonine-protein kinase 24 (Homo sapiens) (UniProt Q9Y6E0); experiment: Inhibition of MST3 Lys2 labeling site harbouring DIKAANVLLSEHGEVK in human Huh-7 cells at 1 uM by KiNativ Profiling analysis relative to control; assay type: cell-based
# Chain of Serine/threonine-protein kinase 24 (Homo sapiens) (Q9Y6E0 whole entry, looked up): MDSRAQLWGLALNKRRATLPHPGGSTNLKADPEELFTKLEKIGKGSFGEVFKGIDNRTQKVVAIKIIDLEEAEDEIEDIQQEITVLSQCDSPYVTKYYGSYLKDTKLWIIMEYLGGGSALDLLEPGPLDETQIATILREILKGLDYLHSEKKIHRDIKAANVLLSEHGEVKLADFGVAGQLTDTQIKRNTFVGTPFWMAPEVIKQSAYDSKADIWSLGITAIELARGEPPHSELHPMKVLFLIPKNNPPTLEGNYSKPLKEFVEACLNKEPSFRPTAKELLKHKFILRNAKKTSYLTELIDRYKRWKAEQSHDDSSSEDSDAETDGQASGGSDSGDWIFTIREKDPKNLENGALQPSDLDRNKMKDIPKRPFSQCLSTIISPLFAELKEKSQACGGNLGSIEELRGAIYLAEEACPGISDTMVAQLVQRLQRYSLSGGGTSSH
# [15] = biological target: Phosphatidylinositol 4-kinase type 2-beta (Homo sapiens) (UniProt Q8TCG2); experiment: Inhibition of PI4K2B ATP labeling site in human Huh-7 cells at 1 uM by KiNativ Profiling analysis relative to control; assay type: cell-based
# Chain of Phosphatidylinositol 4-kinase type 2-beta (Homo sapiens) (Q8TCG2 whole entry): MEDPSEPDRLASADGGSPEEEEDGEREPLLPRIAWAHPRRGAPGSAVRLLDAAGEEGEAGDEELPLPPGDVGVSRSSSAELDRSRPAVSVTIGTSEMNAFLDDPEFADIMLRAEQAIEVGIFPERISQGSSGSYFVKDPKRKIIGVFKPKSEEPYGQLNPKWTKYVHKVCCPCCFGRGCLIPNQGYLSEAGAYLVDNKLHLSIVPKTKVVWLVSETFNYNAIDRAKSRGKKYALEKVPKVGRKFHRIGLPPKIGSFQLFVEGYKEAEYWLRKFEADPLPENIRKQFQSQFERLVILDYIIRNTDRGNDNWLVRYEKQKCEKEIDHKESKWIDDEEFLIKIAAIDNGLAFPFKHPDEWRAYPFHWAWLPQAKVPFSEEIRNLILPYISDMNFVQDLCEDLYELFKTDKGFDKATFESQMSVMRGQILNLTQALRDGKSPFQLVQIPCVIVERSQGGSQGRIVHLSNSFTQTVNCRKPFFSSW
# [16] = biological target: Serine/threonine-protein kinase ATR (Homo sapiens) (UniProt Q13535); experiment: Inhibition of ATR ATP labeling site in human Huh-7 cell lysate at 1 uM by KiNativ Profiling analysis relative to control; assay type: subcellular
smiles,measurement,setting,value
CCN1CCN(Cc2ccc(NC(=O)c3ccc(C)c(Oc4ccnc5[nH]ccc45)c3)cc2C(F)(F)F)CC1,inhibition,[1],0.8%
same,inhibition,[2],inactive
same,inhibition,[3],-3.4%
same,inhibition,[4],inactive
same,inhibition,[5],-9.3%
same,inhibition,[6],5.3%
same,inhibition,[7],-0.3%
same,inhibition,[8],6%
same,inhibition,[9],-4.5%
same,inhibition,[10],-4.4%
same,inhibition,[11],inactive
CCN1CCN(Cc2ccc(NC(=O)c3ccc(C)c(/C=C/c4cnc5[nH]ccc5c4OC)c3)cc2C(F)(F)F)CC1,inhibition,[12],4%
CNc1cc(Oc2cc(C(=O)Nc3cc(N4CCN(C)CC4)cc(C(F)(F)F)c3)ccc2C)ncn1,inhibition,[13],0.2%
same,inhibition,[14],4.3%
same,inhibition,[15],16%
same,inhibition,[16],5.1%
